The record followed here is patent publication US6518423B1, “Benzopiperidine derivatives” (Eisai Co., Ltd., priority 1996, dated 2003).

SMILES strings stand for the structures.

A word on the melting point: it is the temperature of the solid-liquid transition. In the case of `Cc1nccn1Cc1ccc2c(c1)Nc1nccnc1S2`, the melting point was in the range of 244 to 246 °C. In turn, `N#Cc1ccc(-c2cn(Cc3ccc4c(c3)Nc3nccnc3S4)cn2)cc1` registered a melting point of 262 to 264 °C. For `O=C(O)c1ccc(Cc2nccn2Cc2ccc3c(c2)Nc2nccnc2S3)cc1` the value was 185 to 188 °C. `O=C(O)c1ccc(C(=O)c2nccn2Cc2ccc3c(c2)Nc2nccnc2S3)cc1`: the melting point was in the range of 242 to 246 °C. The figure for `Cc1ncn(Cc2ccc3c(c2)Nc2nccnc2S3)c1C(=O)O` is 235 °C (dec.); for `COC(C)(C)CC/C(=C\c1ncn(Cc2ccc3c(c2)Nc2nccnc2S3)c1C)C(=O)O` it is 202 to 204 °C; for `OC(c1ccccn1)c1nccn1Cc1ccc2c(c1)Nc1nccnc1S2` (centres unmarked) it is 95 to 98 °C. For `Cc1ncn(Cc2ccc3c(c2)Nc2nccnc2S3)c1C(C)(C)O` the value was 199 to 202 °C; for `CC1C[C@@H](C)C2CN(Cc3ccc4c(c3)Nc3nccnc3S4)CC1C21CC(CC(=O)O)C1` (some centres unmarked), 205 to 206 °C; for `COc1ccc(C(O)c2ccc3c(c2)Nc2nccnc2S3)cc1` (centres unmarked), 84 to 86 °C. The figure for `CN(Cc1ccc(C(=O)O)cc1)Cc1ccc2c(c1)Nc1nccnc1S2` is 241 to 244 °C.

On to `O=C(O)c1ccc(CNCc2ccc3c(c2)Nc2nccnc2S3)cc1`, for which the melting point fell in the range of 245 to 248 °C.

With `CCCNC(=O)Cc1ccc2c(c1)Nc1nccnc1S2`, the melting point is 212 °C (dec.). For `O=C(Nc1ccccc1)OCc1ccc2c(c1)Nc1nccnc1S2` the value was 237 to 240 °C; for `c1ccc(COCc2ccc3c(c2)Nc2nccnc2S3)cc1`, 118 to 120 °C; for `Nc1ncnc2c1ncn2Cc1ccc2c(c1)Nc1nccnc1S2`, 290 °C. `CN(C)c1nc(N(C)C)c2ncn(Cc3ccc4c(c3)Nc3nccnc3S4)c2n1` showed a melting point of 239 to 240 °C. Compound `CCc1ncnc2c1ncn2Cc1ccc2c(c1)Nc1nccnc1S2` registered a melting point of 215 to 217 °C.

Take `CC(=O)c1ncnc2ncn(Cc3ccc4c(c3)Nc3nccnc3S4)c12`: the melting point is 266 to 268 °C. The figure for `CC(O)c1ncnc2ncn(Cc3ccc4c(c3)Nc3nccnc3S4)c12` (centres unmarked) is 205 to 208 °C; for `Cl.N=C(Cc1ccc2c(c1)Nc1nccnc1S2)Nc1ccccc1` it is 245 to 249 °C (dec.). For `Cl.N=C(N)c1ccnc2c1Sc1ccccc1N2` the value was over 280 °C.

In turn, `CS(=O)(=O)N1CCC(NCc2ccc3c(c2)Nc2nccnc2S3)CC1` yielded a melting point of 219 to 221 °C. For `NC(=O)C1CCN(Cc2ccc3c(c2)Nc2nccnc2S3)CC1` the value was 225 to 228 °C. For `CC1CCCC(C)N1Cc1ccc2c(c1)Nc1nccnc1S2` (centres unmarked) the value was 168 to 172 °C; for `O=C1NC(=O)C2(CCN(Cc3ccc4c(c3)Nc3nccnc3S4)CC2)N1`, over 275 °C. For `c1ccc2c(c1)CN(Cc1ccc3c(c1)Nc1nccnc1S3)C2` the value was 219 to 220 °C; for `OCC1(O)CCN(Cc2ccc3c(c2)Nc2nccnc2S3)CC1`, 170 to 173 °C; for `CN(C)S(=O)(=O)CCC1CCN(Cc2ccc3c(c2)Nc2nccnc2S3)CC1`, 188 to 190 °C. On to `CCC/C(=N\OCC(=O)O)C1CCN(Cc2ccc3c(c2)Nc2nccnc2S3)CC1`, for which the melting point lay in the range of 193 to 195 °C. The figure for `O=C(Cc1ccc2c(c1)Nc1nccnc1S2)NCCCN1CCC(C(=O)O)CC1` is 143 °C (dec.); for `CC(CCC1CCN(Cc2ccc3c(c2)Nc2ncncc2S3)CC1)C(=O)O` (centres unmarked) it is 219 to 220 °C. The figure for `CC(CCC1CCN(CCCc2ccc3c(c2)Nc2nccnc2S3)CC1)C(=O)O` (centres unmarked) is 235 to 238 °C. For `COc1cc(C2CCN(Cc3ccc4c(c3)Nc3nccnc3S4)CC2)cc(CC(=O)O)c1OC` the value was 138 to 140 °C; for `CC(CCC1CCN(Cc2ccc3c(c2)Nc2ccncc2S3)CC1)C(=O)O` (centres unmarked), 210 to 215 °C; for `CC(C(=O)O)C1CC2(CCN(Cc3ccc4c(c3)Nc3nccnc3S4)CC2)C1` (centres unmarked), 169 to 172 °C. Regarding `CC1(CC(=O)O)CC2(CCN(Cc3ccc4c(c3)Nc3nccnc3S4)CC2)C1`, the melting point lay within 149 to 151 °C.

With `O=C(O)CNC1CCN(Cc2ccc3c(c2)Nc2nccnc2S3)CC1`, the melting point lay in the range of 206 to 208 °C. The figure for `O=C(O)C#CC1CCN(Cc2ccc3c(c2)Nc2nccnc2S3)CC1` is 155 to 156 °C; for `CS(=O)(=O)N1CCC(N(CC(=O)O)Cc2ccc3c(c2)Nc2nccnc2S3)CC1` it is 185 to 189 °C; for `O=C(O)COC1CCN(Cc2ccc3c(c2)Nc2nccnc2S3)CC1` it is 204 to 207 °C.

As for `CCOC(=O)c1ccc2c(c1)Nc1nccnc1N2`, the melting point is over 275 °C. For `CN1c2ccc(C#N)cc2Nc2nccnc21` the value was 274 to 275 °C; for `O=C(O)c1ccc(CN2c3ccccc3Nc3nccnc32)cc1`, 253 to 255 °C.

The compound `COC(=O)CCCN1c2ccccc2Nc2nccnc21` came in with a melting point of 189 to 190 °C. For `O=C(O)CCCN1c2ccccc2Nc2nccnc21` the value was 273 to 274 °C. For `CN1c2ccc(C=O)cc2Nc2nccnc21` the value was 215 to 219 °C; for `CN1c2ccc(-c3cnco3)cc2Nc2nccnc21`, 268 to 269 °C; for `CN1c2ccc(C(O)C#Cc3ccccc3)cc2Nc2nccnc21` (centres unmarked), 204 to 208 °C.

For `CN1c2ccc(C(O)c3nccn3S(=O)(=O)N(C)C)cc2Nc2nccnc21` (centres unmarked), the melting point lay in the range of 185 to 190 °C.

`CN1c2ccc(C(O)c3nnc[nH]3)cc2Nc2nccnc21` (centres unmarked) came in with a melting point of over 275 °C. For `CN1c2ccc(C(N)c3ccccn3)cc2Nc2nccnc21` (centres unmarked), the melting point was over 275 °C. The compound `CN(C)C(=O)C#Cc1ccc2c(c1)Nc1nccnc1N2C` came in with a melting point of 203 to 205 °C.

As for `CN1c2ccc(C#Cc3ccccc3)cc2Nc2nccnc21`, the melting point lay in the range of 245 to 247 °C. For `c1cc(NCc2ccc3c(c2)Nc2nccnc2S3)ccn1` the value was 194 to 196 °C; for `c1ccc2c(NCc3ccc4c(c3)Nc3nccnc3S4)nccc2c1`, 222 to 225 °C. The figure for `O=C(O)CCC1C2CCCC1CN(Cc1ccc3c(c1)Nc1nccnc1S3)C2` (centres unmarked) is 223 to 225 °C; for `CN(C)c1ccc(NCc2ccc3c(c2)Nc2nccnc2S3)cn1` it is 244 to 247 °C; for `COc1ccc(NCc2ccc3c(c2)Nc2nccnc2S3)c(OC)n1` it is 160 to 164 °C. As for `CCc1ccc(NCc2ccc3c(c2)Nc2nccnc2S3)cn1`, the melting point lay within 202 to 204 °C. The figure for `CCOC(=O)C(C)(C)CCCCc1ccc(NCc2ccc3c(c2)Nc2nccnc2S3)cn1` is 160 to 164 °C. For `OCCCCCCOc1ccc(NCc2ccc3c(c2)Nc2nccnc2S3)cn1` the value was 124 to 128 °C; for `O=C(O)c1ccc(NCc2ccc3c(c2)Nc2nccnc2S3)nc1`, 215 to 220 °C; for `CC(C)(CCCCc1ccc(NCc2ccc3c(c2)Nc2nccnc2S3)cn1)C(=O)O`, 158 to 161 °C.

`CS(=O)(=O)N(Cc1ccc2c(c1)Nc1nccnc1S2)c1cccnc1` came in with a melting point of 208 to 210 °C.
